# Key:
# [1] = test system: IL-3/JAK2-dependent BaF/3 cells; assay: BaF/3 cell viability (MTS); type: cell-based, murine; details: identical concentrations of EP009 (up to 10 μM), 72 hours
# Procedure: FIGS. 2A-2F. […] (B) Kit225 or (C) BaF/3 cells cultured in the presence of IL-2 or IL-3, respectively, were treated with vehicle (PBS; lane a) or increasing amounts of EP009 (0-50 μM; lanes b-h) for 12 hours. Cells were then lysed, clarified, and immunoprecipitated (IP) with anti-JAK3 (α-JAK3) or anti-JAK2 (α-JAK2), and subjected to Western blot (WB) analysis with anti-phosphotyrosine (α-pY). Blots were stripped and reprobed with corresponding antibody to verify equivalent protein loading. (D) Immunopurified JAK3 was subjected to in vitro autokinase analysis after treatment with vehicle (DMSO; lanes a and b) or ascending concentrations of EP009 (0-10 μM; lanes c-f) for 1 hour at room temperature. […] (E) Kit225 or BaF/3 cells were cultured with increasing amounts of EP009 (0-10 μM) for 72 hours and cell viability measured with the MTS tetrazolium salt assay. Values represent mean absorbance (OD490-OD650 nm) normalized to vehicle (PBS) treated control cells, while error bars represent the standard deviation (n=3). (F) HEK293, HEPG2, or naïve primary human PBMCs were cultured with increasing amounts of EP009 (0-10 μM) for 72 hours and cell viability measured with the MTS tetrazolium salt assay. Values represent mean absorbance (OD490-OD650 nm) normalized to vehicle (PBS) treated control cells, while error bars represent the standard deviation (n=3). […]
# [2] = molecular target: ABL1(E255K)-phosphorylated (Homo sapiens, UniProt P00519, E255K); assay: Kinase panel: ABL1(E255K)-phosphorylated; type: biochemical; details: 10 μM EP009
# Procedure: (§1) Achieving JAK3 selectivity remains a significant challenge in the development of new small molecules for the treatment of cancer and immune-derived diseases. As such, the inventors employed cell-based screening assays of small-molecule libraries based upon the chemical scaffold of the established JAK3 inhibitor NC1153 (Stepkowski et al., J Immunol. (2005), 175(7):4236-4246) EP009 (FIG. 2A) was selected as a lead compound due to improved intrinsic stability (>95% purity in various solvents at 37° C. for 24 hours; FIG. 3) and high-degree of JAK3 selectivity. To test JAK3 versus JAK2 specificity of EP009, the IL-2/JAK3-dependent Kit225, and IL-3/JAK2-dependent BaF/3 cell lines were used. Kit225 and BaF/3 cells growing in the presence of IL-2 or IL-3, respectively, were treated with ascending concentrations of EP009 for 12 hours and cellular JAK3 and JAK2 tyrosine phosphorylation levels detected by Western blot analysis (FIGS. 2B and 2C). Following densitometric analysis, EP009 was determined to dose-dependently reduce IL-2-mediated JAK3 tyrosine phosphorylation with a cellular 50% inhibitory concentration (IC50) between 10 and 20 μM (FIG. 2B). […] To globally evaluate specificity, the inhibitory activity of EP009 was measured against a panel of protein kinases distributed throughout the kinome using the scanEDGE profiling service (KINOMEscan). […]
# [3] = molecular target: ABL1(T315I)-phosphorylated (Homo sapiens, UniProt P00519, T315I); assay: Kinase panel: ABL1(T315I)-phosphorylated; type: biochemical; details: 10 μM EP009
# Procedure: as §1
# AURKB = AURKB (Homo sapiens, UniProt Q96GD4); assay: Kinase panel: AURKB; type: biochemical; details: 10 μM EP009
# Procedure: as §1
# CDK9 = CDK9 (Homo sapiens, UniProt P50750); assay: Kinase panel: CDK9; type: biochemical; details: 10 μM EP009
# Procedure: as §1
# CHEK1 = CHEK1 (Homo sapiens, UniProt O14757); assay: Kinase panel: CHEK1; type: biochemical; details: 10 μM EP009
# Procedure: as §1
# EPHA2 = EPHA2 (Homo sapiens, UniProt P29317); assay: Kinase panel: EPHA2; type: biochemical; details: 10 μM EP009
# Procedure: as §1
# MKNK1 = MKNK1 (Homo sapiens, UniProt Q9BUB5); assay: Kinase panel: MKNK1; type: biochemical; details: 10 μM EP009
# Procedure: as §1
# PAK1 = PAK1 (Homo sapiens, UniProt Q13153); assay: Kinase panel: PAK1; type: biochemical; details: 10 μM EP009
# Procedure: as §1
# PAK4 = PAK4 (Homo sapiens, UniProt O96013); assay: Kinase panel: PAK4; type: biochemical; details: 10 μM EP009
# Procedure: as §1
# PLK1 = PLK1 (Homo sapiens, UniProt P53350); assay: Kinase panel: PLK1; type: biochemical; details: 10 μM EP009
# Procedure: as §1
# TSSK1B = TSSK1B (Homo sapiens, UniProt Q9BXA7); assay: Kinase panel: TSSK1B; type: biochemical; details: 10 μM EP009
# Procedure: as §1
# PLK1, sequence (P53350 whole entry): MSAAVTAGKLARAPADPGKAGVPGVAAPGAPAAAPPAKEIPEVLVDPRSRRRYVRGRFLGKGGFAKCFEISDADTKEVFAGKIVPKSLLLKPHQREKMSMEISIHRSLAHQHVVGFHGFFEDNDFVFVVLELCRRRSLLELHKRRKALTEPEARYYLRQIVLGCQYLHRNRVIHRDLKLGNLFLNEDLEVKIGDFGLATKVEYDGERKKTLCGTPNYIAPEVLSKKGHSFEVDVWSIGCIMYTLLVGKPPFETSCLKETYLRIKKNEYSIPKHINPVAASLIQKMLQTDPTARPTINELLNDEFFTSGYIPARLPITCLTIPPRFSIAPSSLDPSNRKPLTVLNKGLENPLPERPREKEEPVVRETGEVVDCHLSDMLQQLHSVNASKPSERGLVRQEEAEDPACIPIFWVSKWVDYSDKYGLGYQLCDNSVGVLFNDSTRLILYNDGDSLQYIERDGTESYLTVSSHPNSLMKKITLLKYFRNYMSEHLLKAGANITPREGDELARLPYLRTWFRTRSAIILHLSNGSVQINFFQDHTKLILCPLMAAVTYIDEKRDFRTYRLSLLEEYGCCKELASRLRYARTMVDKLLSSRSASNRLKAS
# CDK9, sequence (P50750 whole entry): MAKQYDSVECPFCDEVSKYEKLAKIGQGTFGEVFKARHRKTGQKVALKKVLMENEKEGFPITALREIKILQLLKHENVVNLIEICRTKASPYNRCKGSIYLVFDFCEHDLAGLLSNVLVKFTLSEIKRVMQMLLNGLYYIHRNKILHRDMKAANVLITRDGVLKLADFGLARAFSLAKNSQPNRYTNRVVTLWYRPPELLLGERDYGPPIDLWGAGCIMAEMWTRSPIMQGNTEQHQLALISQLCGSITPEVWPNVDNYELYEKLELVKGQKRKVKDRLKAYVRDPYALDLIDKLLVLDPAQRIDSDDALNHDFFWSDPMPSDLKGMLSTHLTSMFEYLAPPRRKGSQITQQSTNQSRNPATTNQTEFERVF
# PAK1, sequence (Q13153 whole entry): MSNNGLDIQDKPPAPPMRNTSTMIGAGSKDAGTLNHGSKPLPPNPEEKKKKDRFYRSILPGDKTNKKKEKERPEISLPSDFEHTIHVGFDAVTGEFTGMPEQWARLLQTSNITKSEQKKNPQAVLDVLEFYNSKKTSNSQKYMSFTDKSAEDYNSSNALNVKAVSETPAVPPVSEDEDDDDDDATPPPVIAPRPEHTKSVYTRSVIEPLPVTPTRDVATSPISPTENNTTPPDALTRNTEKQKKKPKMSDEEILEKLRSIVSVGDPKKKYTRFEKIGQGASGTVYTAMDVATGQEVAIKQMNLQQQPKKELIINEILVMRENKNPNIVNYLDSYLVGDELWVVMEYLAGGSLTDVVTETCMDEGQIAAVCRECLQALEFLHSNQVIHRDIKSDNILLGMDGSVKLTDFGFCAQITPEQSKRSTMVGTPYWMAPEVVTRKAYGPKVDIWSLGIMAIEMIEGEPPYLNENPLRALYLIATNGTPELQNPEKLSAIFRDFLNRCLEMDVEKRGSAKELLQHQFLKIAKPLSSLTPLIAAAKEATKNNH
# CHEK1, sequence (O14757 whole entry): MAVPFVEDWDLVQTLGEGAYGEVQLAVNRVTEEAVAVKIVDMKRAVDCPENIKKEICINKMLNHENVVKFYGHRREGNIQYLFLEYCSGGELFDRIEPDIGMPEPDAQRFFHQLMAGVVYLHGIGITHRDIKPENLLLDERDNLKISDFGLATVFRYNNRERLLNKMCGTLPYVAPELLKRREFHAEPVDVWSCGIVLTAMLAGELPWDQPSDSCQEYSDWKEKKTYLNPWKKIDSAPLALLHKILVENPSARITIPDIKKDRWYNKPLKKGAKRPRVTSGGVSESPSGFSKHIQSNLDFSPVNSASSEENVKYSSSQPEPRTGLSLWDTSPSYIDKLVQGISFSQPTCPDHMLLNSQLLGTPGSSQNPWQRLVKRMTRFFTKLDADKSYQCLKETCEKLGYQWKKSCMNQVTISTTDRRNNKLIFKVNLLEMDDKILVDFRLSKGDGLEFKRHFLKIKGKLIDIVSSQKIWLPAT
# AURKB, sequence (Q96GD4 whole entry): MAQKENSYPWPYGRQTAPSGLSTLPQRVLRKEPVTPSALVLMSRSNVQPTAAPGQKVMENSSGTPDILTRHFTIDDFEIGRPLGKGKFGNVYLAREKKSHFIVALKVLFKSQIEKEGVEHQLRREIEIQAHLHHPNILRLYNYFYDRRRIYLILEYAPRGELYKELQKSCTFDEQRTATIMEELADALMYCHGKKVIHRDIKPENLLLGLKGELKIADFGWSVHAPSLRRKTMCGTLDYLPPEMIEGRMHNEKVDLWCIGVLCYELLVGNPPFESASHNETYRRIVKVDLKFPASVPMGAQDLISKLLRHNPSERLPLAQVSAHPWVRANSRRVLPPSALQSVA
# MKNK1, sequence (Q9BUB5 whole entry): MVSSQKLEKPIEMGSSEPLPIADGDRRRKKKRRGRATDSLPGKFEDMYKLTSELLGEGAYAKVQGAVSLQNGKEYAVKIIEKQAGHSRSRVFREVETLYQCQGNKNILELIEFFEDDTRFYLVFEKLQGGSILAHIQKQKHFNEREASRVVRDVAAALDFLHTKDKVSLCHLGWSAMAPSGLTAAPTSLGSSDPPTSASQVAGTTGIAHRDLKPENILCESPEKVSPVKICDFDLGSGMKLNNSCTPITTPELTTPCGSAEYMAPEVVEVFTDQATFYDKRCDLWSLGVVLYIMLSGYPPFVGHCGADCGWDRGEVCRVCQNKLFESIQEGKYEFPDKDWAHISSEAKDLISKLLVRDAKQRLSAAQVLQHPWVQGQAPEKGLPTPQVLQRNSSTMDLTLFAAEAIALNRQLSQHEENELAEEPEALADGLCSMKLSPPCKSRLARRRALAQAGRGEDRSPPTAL
# TSSK1B, sequence (Q9BXA7 whole entry): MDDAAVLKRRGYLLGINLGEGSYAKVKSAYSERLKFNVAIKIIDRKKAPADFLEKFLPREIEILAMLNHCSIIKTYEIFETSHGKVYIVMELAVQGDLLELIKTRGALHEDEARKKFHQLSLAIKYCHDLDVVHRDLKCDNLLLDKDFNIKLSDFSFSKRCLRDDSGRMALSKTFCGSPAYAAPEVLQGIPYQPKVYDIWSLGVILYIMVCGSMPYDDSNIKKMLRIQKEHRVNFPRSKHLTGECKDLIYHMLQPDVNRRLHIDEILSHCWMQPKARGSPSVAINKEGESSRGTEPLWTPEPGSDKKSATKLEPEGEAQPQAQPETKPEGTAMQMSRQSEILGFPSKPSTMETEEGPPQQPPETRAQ
# PAK4, sequence (O96013 whole entry): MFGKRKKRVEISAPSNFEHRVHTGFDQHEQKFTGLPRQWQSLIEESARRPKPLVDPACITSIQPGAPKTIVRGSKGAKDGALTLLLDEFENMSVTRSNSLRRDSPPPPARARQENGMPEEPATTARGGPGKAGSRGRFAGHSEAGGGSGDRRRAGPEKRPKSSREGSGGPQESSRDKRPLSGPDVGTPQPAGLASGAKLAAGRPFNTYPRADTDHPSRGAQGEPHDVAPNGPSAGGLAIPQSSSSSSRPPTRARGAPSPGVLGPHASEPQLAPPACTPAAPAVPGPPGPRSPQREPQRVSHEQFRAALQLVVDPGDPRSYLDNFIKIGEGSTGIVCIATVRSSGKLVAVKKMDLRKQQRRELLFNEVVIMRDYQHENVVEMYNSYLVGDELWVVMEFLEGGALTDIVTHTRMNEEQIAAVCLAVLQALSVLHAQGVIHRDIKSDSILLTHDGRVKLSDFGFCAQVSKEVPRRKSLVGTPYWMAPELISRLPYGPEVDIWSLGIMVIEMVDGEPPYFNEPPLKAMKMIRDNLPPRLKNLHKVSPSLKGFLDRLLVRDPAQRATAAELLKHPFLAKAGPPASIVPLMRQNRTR
# EPHA2, sequence (P29317 24-976): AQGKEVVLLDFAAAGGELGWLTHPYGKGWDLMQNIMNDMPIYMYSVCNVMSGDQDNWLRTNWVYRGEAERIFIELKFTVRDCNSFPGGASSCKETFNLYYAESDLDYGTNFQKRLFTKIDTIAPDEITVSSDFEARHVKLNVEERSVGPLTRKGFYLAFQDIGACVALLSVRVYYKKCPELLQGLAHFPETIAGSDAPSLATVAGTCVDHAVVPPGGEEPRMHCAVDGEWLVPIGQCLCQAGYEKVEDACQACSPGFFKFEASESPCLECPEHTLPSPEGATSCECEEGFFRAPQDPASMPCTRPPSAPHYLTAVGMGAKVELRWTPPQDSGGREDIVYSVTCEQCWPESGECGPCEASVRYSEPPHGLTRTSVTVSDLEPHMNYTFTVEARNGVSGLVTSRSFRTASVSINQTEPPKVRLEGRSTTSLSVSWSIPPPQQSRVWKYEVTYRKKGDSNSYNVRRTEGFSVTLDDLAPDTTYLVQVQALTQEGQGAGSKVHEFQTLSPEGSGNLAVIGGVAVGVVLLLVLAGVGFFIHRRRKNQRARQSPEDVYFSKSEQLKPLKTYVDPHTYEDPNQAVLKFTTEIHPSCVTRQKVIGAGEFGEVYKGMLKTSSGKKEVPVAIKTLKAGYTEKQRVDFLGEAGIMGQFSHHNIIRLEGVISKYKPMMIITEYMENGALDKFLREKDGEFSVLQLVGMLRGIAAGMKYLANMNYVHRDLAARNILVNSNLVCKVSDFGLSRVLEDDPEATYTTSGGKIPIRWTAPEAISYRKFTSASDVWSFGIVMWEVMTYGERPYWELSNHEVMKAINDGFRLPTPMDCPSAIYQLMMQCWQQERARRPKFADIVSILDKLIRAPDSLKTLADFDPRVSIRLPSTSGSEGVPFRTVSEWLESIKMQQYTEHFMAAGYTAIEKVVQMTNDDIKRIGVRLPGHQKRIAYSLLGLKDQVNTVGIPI
compound,measurement,setting,value
"C=C1CCCCCCCCCC(CO)C1=O (stereo not drawn) [EP009, 2-(Hydroxymethyl)-12-methylenecyclododecanone]",effect on BaF/3 cell viability,[1],no effect
same,Kinase Activity (% of Control),[2],64 % of Control
same,Kinase Activity (% of Control),[3],100 % of Control
same,Kinase Activity (% of Control),AURKB,99 % of Control
same,Kinase Activity (% of Control),CDK9,90 % of Control
same,Kinase Activity (% of Control),CHEK1,100 % of Control
same,Kinase Activity (% of Control),EPHA2,100 % of Control
same,Kinase Activity (% of Control),MKNK1,100 % of Control
same,Kinase Activity (% of Control),PAK1,100 % of Control
same,Kinase Activity (% of Control),PAK4,100 % of Control
same,Kinase Activity (% of Control),PLK1,100 % of Control
same,Kinase Activity (% of Control),TSSK1B,98 % of Control

# — US9371265B2, “Compositions and methods related to inhibitors of JAK kinase” (EP PHARMA, INC., priority 2012, dated 2016)
